Assay: Adsorption of drugs: recovery from supernatant by ESI-MS after incubation on glass, coated or uncoated polystyrene
Assay type: physicochemical
Details: 100 nM drug, FIG. 4, samples stored in glass vials up to 3 days
Procedure: Different concentrations of the drugs were dissolved in 2 ml H2O from a stock solution of 0.5 mM in 50% acetonitrile/50% H2O, and added to coated or uncoated polystyrene containers (2 mL solution added to each circular container of diameter 33 mm) as well as glass containers acting as reference material. Drug concentrations up to 250 nM were investigated. At different time points 250 μL of supernatant was sampled for analysis. […] The samples were analyzed by ESI-MS using 50% H2O/50% MeOH/0.1% acetic acid running buffer (0.1 mL/min).
The effectiveness of the low-binding Bz+NHS-PEG coatings were probed by extended incubation of coated and uncoated polystyrene in 100 nM solutions of drugs spanning a wide range of hydrophobicity. Glass surfaces were included as reference to the polystyrene. The supernanants of the incubation solutions were sampled at different time points, and the drug concentrations determined by electrospray ionization mass spectrometry (ESI-MS) after addition of an internal standard.
The recovery was calculated as the ratio of the drug concentration in the supernatant to the initially added drug concentration.

SMILES: CCCCc1oc2ccccc2c1C(=O)c1cc(I)c(OCCN(CC)CC)c(I)c1 [amiodarone]
- adsorption on glass surface: large adsorption even on the glass surface
